Two compounds from publication PMC11024163, “MmcA is an electron conduit that facilitates both intracellular and extracellular electron transport in Methanosarcina acetivorans” (Nature Communications, 2024) can be followed below.

The target in this experiment is T1, MmcA (Methanosarcina acetivorans, UniProt Q8TSY5).
T1 construct: gene MA_0658; mature holo-protein of 476 aa (signal peptide removed), C-terminal 3xFLAG and twin-Strep tags kept; homologous expression in M. acetivorans, anti-Flag purified from Triton X-100 solubilised membranes; seven covalent hemes c
T1 sequence (Q8TSY5 25-500): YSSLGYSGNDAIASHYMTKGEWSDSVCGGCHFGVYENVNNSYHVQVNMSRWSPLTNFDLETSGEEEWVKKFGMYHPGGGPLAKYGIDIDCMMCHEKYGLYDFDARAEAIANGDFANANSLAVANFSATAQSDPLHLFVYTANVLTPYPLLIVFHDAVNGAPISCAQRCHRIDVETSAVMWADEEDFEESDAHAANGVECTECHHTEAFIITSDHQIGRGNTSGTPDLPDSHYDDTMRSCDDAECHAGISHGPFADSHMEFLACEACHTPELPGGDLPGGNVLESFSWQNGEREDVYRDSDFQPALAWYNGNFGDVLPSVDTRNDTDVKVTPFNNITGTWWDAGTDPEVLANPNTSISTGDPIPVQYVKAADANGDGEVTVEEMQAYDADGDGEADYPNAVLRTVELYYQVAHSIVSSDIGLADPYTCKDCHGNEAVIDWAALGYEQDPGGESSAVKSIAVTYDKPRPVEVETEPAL
Kind of experiment: UV-vis spectral oxidation of dithionite-reduced MmcA. It counts as biochemical. The following applies: 2.5–3.5 µM MmcA, 50 mM Tris-HCl, 150 mM NaCl, 2% glycerol, pH 7.4, room temperature, anaerobic.

Turning to `Oc1ccc2nc3ccccc3nc2c1` [2HP, 2-hydroxyphenazine], the “UV-vis spectral oxidation of dithionite-reduced MmcA” value (electron acceptor, soluble methanophenazine analogue, 200 µM) is listed as “The addition of 2HP instantaneously oxidized MmcA as observed by a shift in its Soret”. Turning to `O=C1c2ccc(S(=O)(=O)O)cc2C(=O)c2ccc(S(=O)(=O)O)cc21` [AQDS, anthraquinone-2,6-disulfonate], the “UV-vis spectral oxidation of dithionite-reduced MmcA” value (electron acceptor in excess) is “All three electron acceptors oxidized MmcA rapidly”.
